# According to patent US9404933B2, “Methods for determining patient response to anti-platelet aggregation therapy” (INVITROX, INC., priority 2011, dated 2016):
# Read-outs that look alike come from different tables or passages of the source.
# Experiments:
# human platelets = assay: Focused light scattering size distribution of platelets and microparticles after activation; assay type: cell-based; conditions: normal resting human platelets versus activated; FIG. 8 / FIG. 9
# Excerpt: FIG. 8 is a chart showing the result of the activation of platelets using thrombin receptor activating peptide (TRAP), where platelets are enlarged when activated, and also give off microparticles (MPs).
# FIG. 9 is a chart showing the result of the activation of platelets using a calcium ionophore, which destroys platelets, and also causes the platelets to give off microparticles (MPs). Treated and untreated platelet size distributions are shown. What is observed is as the number of platelets decreases, the number of MPs increases.
# The ionophore basically destroys the platelet to produce many more MPs. Treated and untreated platelet size distributions are shown. What is observed is as the number of platelets decreases, the number of MPs increases.
# [1] = system: P2Y12-dependent platelet function; conditions: added in vitro to blood from clopidogrel treated patients; cited from earlier work
# [2] = in vivo; cited from earlier work
# [3] = system: ADP-induced platelet aggregation; conditions: cited from earlier work; for inhibition of platelet aggregation: patients with ischaemic heart disease, measured at 4 min after addition of 10 μM ADP
structure (smiles),measurement,setting,value
CNc1ccc2oc(C[C@H]3O[C@@]4(CC[C@H]3C)O[C@H]([C@H](C)C(=O)c3ccc[nH]3)[C@H](C)C[C@H]4C)nc2c1C(=O)O [calcium ionophore],microparticles (MPs) formed on activation of platelets,human platelets,many more MPs
CSCCNc1nc(SCCC(F)(F)F)nc2c1ncn2[C@@H]1O[C@H](COP(=O)(O)OP(=O)(O)C(Cl)(Cl)P(=O)(O)O)[C@@H](O)[C@H]1O [cangrelor],inhibition of P2Y12-dependent platelet function,[1],near complete inhibition
same,half-life,[2],2.6 min
same,inhibition of platelet aggregation,[3]; infusion at 2 and 4 μg/mL/min,near complete inhibition
"CC(=O)Oc1cc2c(s1)CCN(C(C(=O)C1CC1)c1ccccc1F)C2 (stereo not drawn) [Prasugrel, 2-acetoxy-5-[alpha-cyclopropylcarbonyl-2-fluorobenzyl]-4,5,6,7-tetrahydrothieno[3,2-c]pyridine]",inhibition of ADP-induced platelet aggregation,"[3]; cross-over study, 60 mg loading dose, also in subjects who responded poorly to a standard loading dose of Clopidogrel","rapid and highgrade, irreversible inhibition"
"COC(=O)[C@H](c1ccccc1Cl)N1CCc2sccc2C1 [Plavix, clopidogrel bisulfate]",delayed onset of action,[3]; loading dose of 300-600 mg,two to five
same,inhibition of platelet aggregation,[3]; 4 to 7 days treatment,approximately 60%
